Assay results as given in patent US20090291150A1, “METHOD AND COMPOSITIONS FOR TREATING AND […] BY […]-SENSING ION CHANNEL ACTIVITY” (priority 2008, published 2009).

Assays:
[1] = tested on: PTZ-evoked lethal seizures; test: CO2 inhalation at onset of PTZ-evoked generalized seizures, survival; format: in vivo, mouse; conditions: 90 mg/kg PTZ IP, 10% CO2 in air for 15 minutes from onset of generalized seizures
Method: Age (13-16 weeks) and gender-matched ASIC1a+/+ and ASIC1a−/− mice were injected IP with 90 mg/kg PTZ to test the anti-epileptic effects of CO2. A high dose of PTZ was administered to evoke lethal seizures in mice of both genotypes (FIG. 6a). Kaplan-Meier survival analysis of ASIC1a+/+ and ASIC1a−/− mice in response to 90 mg/kg PTZ while breathing compressed air was conducted (+/+, n 7; −/−, n=7). Both mice had the same rate of reduced survival (Mantel-Cox Log Rank, p=0.582).
After the onset of generalized-clonic seizures (identified behaviorally by clonus in all four limbs), compressed air or 10% CO2 (in air) was rapidly administered in an airtight Plexiglas chamber for 15 minutes (FIG. 6b). The onset latency and time of CO2 administration was similar between genotypes (inset) (unpaired T-test, df (14), t=0.663, p=0.518). The chamber was perfused with CO2 until minute 15, and then switched to compressed air for the duration of the trial (+/+, n=8; −/−, n=8). […] In the ASIC1a−/− mice, seizures continued to progress rapidly to death. All of the ASIC1a+/+ mice survived until the CO2 was switched back to air at minute 15, whereupon the mice rapidly died. The results verified the in vitro findings and taught that ASIC1a also mediates the anti-epileptic effects of low pH in vivo.

ASIC1a = molecular target: T1, ASIC1a (Mus musculus, UniProt Q6NXK8); test: Kainate-induced seizures after ICV injection of PcTx1 in wild-type mice; format: in vivo; conditions: ICV injection 2 hours before kainate 20 mg/kg IP
T1 construct: from tissue; host or cells: brain of living wild-type mice (C57/B16 background), ICV injection
T1 sequence (Q6NXK8 1-526): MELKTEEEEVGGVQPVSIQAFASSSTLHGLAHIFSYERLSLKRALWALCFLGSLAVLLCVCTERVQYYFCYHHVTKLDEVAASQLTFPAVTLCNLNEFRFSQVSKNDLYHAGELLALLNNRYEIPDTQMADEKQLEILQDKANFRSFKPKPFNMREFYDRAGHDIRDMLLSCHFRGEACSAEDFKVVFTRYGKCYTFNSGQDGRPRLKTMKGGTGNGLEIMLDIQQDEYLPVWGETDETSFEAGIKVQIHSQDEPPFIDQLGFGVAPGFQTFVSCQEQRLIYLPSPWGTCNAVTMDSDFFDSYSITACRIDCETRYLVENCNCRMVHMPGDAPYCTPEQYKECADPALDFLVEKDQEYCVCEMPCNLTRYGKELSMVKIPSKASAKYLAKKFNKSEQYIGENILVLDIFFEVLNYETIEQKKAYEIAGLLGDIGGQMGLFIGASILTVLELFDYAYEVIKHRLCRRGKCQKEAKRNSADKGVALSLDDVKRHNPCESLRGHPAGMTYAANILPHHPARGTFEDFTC
Method: Similar effects on seizure activity with both ASIC1a gene disruption and pharmalogical blockade indicate that developmental abnormalities were not responsible for the effects in ASIC1a−/− mice.
Left-lateral, ICV guide cannulae were implanted in anesthetized mice (relative to bregma: anteroposterior −0.3 mm, lateral−1.0 mm, ventral=3.0 mm) and verified by methylene blue injection after euthanasia. Three to five days later, 5 uL or PcTx1-containing venom (SpiderPharm, Yarnell, Ariz.) ([…]) was injected in ACSF (in mM: NaCl 124, KCl 3, NaH2PO4 1.2, MgSO4 1.2, CaCl2 2, NaHCO3 26) or ACSF alone into wild-type mice using a 10 uL-Hamilton syringe connected to a 30-gauge injection (over 10 seconds). Two hours later, mice were injected with kainate (20 mg/kg, IP) then mouse behavior was scored. Continuous, tonic-clonic seizures were identified by tonus and clonus in all four limbs with loss of posture lasting greater than 60 seconds.

Compound	effect on lethal seizures (survival) ([1]; ASIC1a-/- mice)	effect on lethal seizures (survival) ([1]; WT (ASIC1a+/+) mice)	incidence of continuous GTCS following kainate injection (ASIC1a)
O=C=O [CO2, carbon dioxide]	had little effect	prevented lethal seizures	
psalmotoxin 1 [PcTx1]			increased the incidence of continuous GTCS
